In publication PMC3192245 (Proteins, 2011):

Target: AtOPR3 (Arabidopsis thaliana, UniProt Q9FUP0)
Assay: X-ray crystal structure, […] Å
Type: binding
Conditions: ternary complex with 8-iso PGA1; one FMN per monomer

Sequence of AtOPR3 (Q9FUP0 whole entry): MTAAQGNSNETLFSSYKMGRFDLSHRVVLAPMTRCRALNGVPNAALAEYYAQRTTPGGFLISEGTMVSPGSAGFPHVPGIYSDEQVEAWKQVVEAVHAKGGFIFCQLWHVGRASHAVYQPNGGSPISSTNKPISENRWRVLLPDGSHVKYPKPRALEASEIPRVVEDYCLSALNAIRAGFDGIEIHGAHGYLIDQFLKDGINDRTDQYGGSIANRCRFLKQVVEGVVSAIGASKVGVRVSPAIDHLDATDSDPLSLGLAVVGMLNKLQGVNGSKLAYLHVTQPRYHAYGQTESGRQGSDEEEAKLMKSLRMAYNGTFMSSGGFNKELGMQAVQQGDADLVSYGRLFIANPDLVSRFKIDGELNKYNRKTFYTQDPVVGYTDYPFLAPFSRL

SMILES: Cc1cc2nc3c(=O)[nH]c(=O)nc-3n(C[C@H](O)[C@H](O)[C@H](O)COP(=O)(O)O)c2cc1C [FMN]
- X-ray crystal structure, 2.6 Å: each AtOPR3 monomer contains one FMN and one 8-iso PGA1 molecule
